Calls of active or inactive are those of the source. The rule behind the calls is not given here.
Tested on: CCRIS mutagenicity, Ames/micronucleus/aberration tests
Experiment: CCRIS mutagenicity studies

In the case of `COc1cc(CNC(=O)CCCC/C=C/C(C)C)ccc1O`, the mutagenic call (End Point: IN VITRO CHROMOSOMAL ABERRATIONS, Test System: HUMAN LYMPHOCYTES, Metabolic Activation: NONE) is reported as “inactive; negative”, the mutagenic call (End Point: IN VITRO CHROMOSOMAL ABERRATIONS, Test System: HUMAN LYMPHOCYTES, Metabolic Activation: RAT LIVER S-9, AROCLOR 1254) is reported as “inactive; negative” and the mutagenic call (End Point: IN VITRO CHROMOSOMAL ABERRATIONS, Test System: HUMAN LYMPHOCYTES, Metabolic Activation: S-9) is reported as “inactive; negative”. For the same compound, the mutagenic call (End Point: IN VITRO CHROMOSOMAL ABERRATIONS, Test System: HUMAN PERIPHERAL BLOOD LYMPHOCYTES, Metabolic Activation: NONE) was “inactive; negative”, the mutagenic call (End Point: IN VITRO CHROMOSOMAL ABERRATIONS, Test System: HUMAN PERIPHERAL BLOOD LYMPHOCYTES, Metabolic Activation: RAT, LIVER, S-9, AROCLOR 1254) was “inactive; negative” and the mutagenic call (End Point: IN VIVO MICRONUCLEUS, Test System: BONE MARROW ERYTHROCYTES, Species: MOUSE, Strain/Sex: CD-1/FEMALE, Route: GAVAGE) was “inactive; negative”. The mutagenic call (End Point: IN VIVO MICRONUCLEUS, Test System: BONE MARROW ERYTHROCYTES, Species: MOUSE, Strain/Sex: CD-1/MALE, Route: GAVAGE) was “inactive; negative”, the mutagenic call (End Point: IN VIVO MICRONUCLEUS, Test System: BONE MARROW POLYCHROMATIC ERYTHROCYTES, Species: MOUSE, Strain/Sex: CD-1/MALE, FEMALE, Route: GAVAGE) was “inactive; negative” and the mutagenic call (Test System: AMES SALMONELLA TYPHIMURIUM, Strain/Indicator: TA97, Metabolic Activation: NONE, Method: PREINCUBATION (20 MIN)) was “inactive; negative”. The mutagenic call (Test System: AMES SALMONELLA TYPHIMURIUM, Strain/Indicator: TA97, Metabolic Activation: S-9, Method: PREINCUBATION (20 MIN)) was “inactive; negative”, the mutagenic call (Test System: AMES SALMONELLA TYPHIMURIUM, Strain/Indicator: TA98, Metabolic Activation: HAMSTER, LIVER, S-9, AROCLOR 1254, Method: STANDARD PLATE) was “inactive; negative” and the mutagenic call (Test System: AMES SALMONELLA TYPHIMURIUM, Strain/Indicator: TA98, Metabolic Activation: NONE, Method: DIRECT PLATE) was “inactive; negative”. For the same compound, the mutagenic call (Test System: AMES SALMONELLA TYPHIMURIUM, Strain/Indicator: TA98, Metabolic Activation: NONE, Method: PREINCUBATION) was “inactive; negative”, the mutagenic call (Test System: AMES SALMONELLA TYPHIMURIUM, Strain/Indicator: TA98, Metabolic Activation: NONE, Method: PREINCUBATION (20 MIN)) was “inactive; negative” and the mutagenic call (Test System: AMES SALMONELLA TYPHIMURIUM, Strain/Indicator: TA98, Metabolic Activation: RAT LIVER S-9, AROCLOR 1254, Method: PREINCUBATION) was “inactive; negative”. For the same compound, the mutagenic call (Test System: AMES SALMONELLA TYPHIMURIUM, Strain/Indicator: TA98, Metabolic Activation: RAT LIVER S-9, AROCLOR 1254, Method: STANDARD PLATE) was “inactive; negative”, the mutagenic call (Test System: AMES SALMONELLA TYPHIMURIUM, Strain/Indicator: TA98, Metabolic Activation: RAT, LIVER, S-9, AROCLOR 1254, Method: DIRECT PLATE) was “inactive; negative” and the mutagenic call (Test System: AMES SALMONELLA TYPHIMURIUM, Strain/Indicator: TA98, Metabolic Activation: RAT, LIVER, S-9, AROCLOR 1254, Method: PREINCUBATION) was “inactive; negative”. For the same compound, the mutagenic call (Test System: AMES SALMONELLA TYPHIMURIUM, Strain/Indicator: TA98, Metabolic Activation: RAT, LIVER, S-9, AROCLOR, Method: STANDARD PLATE) was “active; positive”, the mutagenic call (Test System: AMES SALMONELLA TYPHIMURIUM, Strain/Indicator: TA98, Metabolic Activation: S-9, Method: PREINCUBATION (20 MIN)) was “inactive; negative” and the mutagenic call (Test System: AMES SALMONELLA TYPHIMURIUM, Strain/Indicator: TA100, Metabolic Activation: HAMSTER, LIVER, S-9, AROCLOR 1254, Method: STANDARD PLATE) was “inactive; negative”. For the same compound, the mutagenic call (Test System: AMES SALMONELLA TYPHIMURIUM, Strain/Indicator: TA100, Metabolic Activation: NONE, Method: DIRECT PLATE) was “inactive; negative”, the mutagenic call (Test System: AMES SALMONELLA TYPHIMURIUM, Strain/Indicator: TA100, Metabolic Activation: NONE, Method: PREINCUBATION) was “inactive; negative” and the mutagenic call (Test System: AMES SALMONELLA TYPHIMURIUM, Strain/Indicator: TA100, Metabolic Activation: NONE, Method: STANDARD PLATE) was “inactive; negative”. For the same compound, the mutagenic call (Test System: AMES SALMONELLA TYPHIMURIUM, Strain/Indicator: TA100, Metabolic Activation: RAT LIVER S-9, AROCLOR 1254, Method: PREINCUBATION) was “inactive; negative”, the mutagenic call (Test System: AMES SALMONELLA TYPHIMURIUM, Strain/Indicator: TA100, Metabolic Activation: RAT LIVER S-9, AROCLOR 1254, Method: STANDARD PLATE) was “inactive; negative” and the mutagenic call (Test System: AMES SALMONELLA TYPHIMURIUM, Strain/Indicator: TA100, Metabolic Activation: RAT, LIVER, S-9, AROCLOR 1254, Method: DIRECT PLATE) was “inactive; negative”. For the same compound, the mutagenic call (Test System: AMES SALMONELLA TYPHIMURIUM, Strain/Indicator: TA100, Metabolic Activation: RAT, LIVER, S-9, AROCLOR 1254, Method: PREINCUBATION) was “inactive; negative”, the mutagenic call (Test System: AMES SALMONELLA TYPHIMURIUM, Strain/Indicator: TA100, Metabolic Activation: S-9 (0.25 ML), Method: PREINCUBATION (20 MIN)) was “inactive; negative” and the mutagenic call (Test System: AMES SALMONELLA TYPHIMURIUM, Strain/Indicator: TA100, Metabolic Activation: S-9 (0.5 ML), Method: PREINCUBATION (60 MIN)) was “inactive; negative”. The mutagenic call (Test System: AMES SALMONELLA TYPHIMURIUM, Strain/Indicator: TA1535, Metabolic Activation: HAMSTER, LIVER, S-9, AROCLOR 1254, Method: STANDARD PLATE) was “inactive; negative”, the mutagenic call (Test System: AMES SALMONELLA TYPHIMURIUM, Strain/Indicator: TA1535, Metabolic Activation: NONE, Method: DIRECT PLATE) was “inactive; negative” and the mutagenic call (Test System: AMES SALMONELLA TYPHIMURIUM, Strain/Indicator: TA1535, Metabolic Activation: NONE, Method: PREINCUBATION) was “inactive; negative”. The mutagenic call (Test System: AMES SALMONELLA TYPHIMURIUM, Strain/Indicator: TA1535, Metabolic Activation: RAT LIVER S-9, AROCLOR 1254, Method: PREINCUBATION) was “inactive; negative”, the mutagenic call (Test System: AMES SALMONELLA TYPHIMURIUM, Strain/Indicator: TA1535, Metabolic Activation: RAT LIVER S-9, AROCLOR 1254, Method: STANDARD PLATE) was “inactive; negative” and the mutagenic call (Test System: AMES SALMONELLA TYPHIMURIUM, Strain/Indicator: TA1535, Metabolic Activation: RAT, LIVER, S-9, AROCLOR 1254, Method: DIRECT PLATE) was “inactive; negative”. For the same compound, the mutagenic call (Test System: AMES SALMONELLA TYPHIMURIUM, Strain/Indicator: TA1535, Metabolic Activation: RAT, LIVER, S-9, AROCLOR 1254, Method: PREINCUBATION) was “inactive; negative”, the mutagenic call (Test System: AMES SALMONELLA TYPHIMURIUM, Strain/Indicator: TA1537, Metabolic Activation: HAMSTER, LIVER, S-9, AROCLOR 1254, Method: STANDARD PLATE) was “inactive; negative” and the mutagenic call (Test System: AMES SALMONELLA TYPHIMURIUM, Strain/Indicator: TA1537, Metabolic Activation: NONE, Method: DIRECT PLATE) was “inactive; negative”. The mutagenic call (Test System: AMES SALMONELLA TYPHIMURIUM, Strain/Indicator: TA1537, Metabolic Activation: NONE, Method: PREINCUBATION) was “inactive; negative”, the mutagenic call (Test System: AMES SALMONELLA TYPHIMURIUM, Strain/Indicator: TA1537, Metabolic Activation: NONE, Method: STANDARD PLATE) was “inactive; negative” and the mutagenic call (Test System: AMES SALMONELLA TYPHIMURIUM, Strain/Indicator: TA1537, Metabolic Activation: RAT LIVER S-9, AROCLOR 1254, Method: PREINCUBATION) was “inactive; negative”. The mutagenic call (Test System: AMES SALMONELLA TYPHIMURIUM, Strain/Indicator: TA1537, Metabolic Activation: RAT LIVER S-9, AROCLOR 1254, Method: STANDARD PLATE) was “inactive; negative”, the mutagenic call (Test System: AMES SALMONELLA TYPHIMURIUM, Strain/Indicator: TA1537, Metabolic Activation: RAT, LIVER, S-9, AROCLOR 1254, Method: DIRECT PLATE) was “inactive; negative” and the mutagenic call (Test System: AMES SALMONELLA TYPHIMURIUM, Strain/Indicator: TA1537, Metabolic Activation: RAT, LIVER, S-9, AROCLOR 1254, Method: PREINCUBATION) was “inactive; negative”. For the same compound, the mutagenic call (Test System: AMES SALMONELLA TYPHIMURIUM, Strain/Indicator: TA1537, Metabolic Activation: RAT, LIVER, S-9, AROCLOR 1254, Method: STANDARD PLATE) was “inactive; negative”, the mutagenic call (Test System: AMES SALMONELLA TYPHIMURIUM, Strain/Indicator: TA1538, Metabolic Activation: HAMSTER, LIVER, S-9, AROCLOR 1254, Method: STANDARD PLATE) was “inactive; negative” and the mutagenic call (Test System: AMES SALMONELLA TYPHIMURIUM, Strain/Indicator: TA1538, Metabolic Activation: NONE, Method: STANDARD PLATE) was “inactive; negative”. The mutagenic call (Test System: AMES SALMONELLA TYPHIMURIUM, Strain/Indicator: TA1538, Metabolic Activation: RAT, LIVER, S-9, AROCLOR 1254, Method: STANDARD PLATE) was “inactive; negative”, the mutagenic call (Test System: CHINESE HAMSTER V-79, Strain/Indicator: V-79/8-AZAGUANINE, Metabolic Activation: NONE) was “inactive; negative” and the mutagenic call (Test System: CHINESE HAMSTER V-79, Strain/Indicator: V-79/8-AZAGUANINE, Metabolic Activation: RAT, LIVER, S-9, AROCLOR) was “inactive; negative”. For the same compound, the mutagenic call (Test System: E. COLI, Strain/Indicator: WP2UVRA, Metabolic Activation: NONE, Method: PREINCUBATION) was “inactive; negative”, the mutagenic call (Test System: E. COLI, Strain/Indicator: WP2UVRA, Metabolic Activation: NONE, Method: STANDARD PLATE) was “inactive; negative” and the mutagenic call (Test System: E. COLI, Strain/Indicator: WP2UVRA, Metabolic Activation: RAT LIVER S-9, AROCLOR 1254, Method: PREINCUBATION) was “inactive; negative”. For the same compound, the mutagenic call (Test System: E. COLI, Strain/Indicator: WP2UVRA, Metabolic Activation: RAT LIVER S-9, AROCLOR 1254, Method: STANDARD PLATE) was “inactive; negative”, the mutagenic call (Test System: E. COLI, Strain/Indicator: WP2UVRA, Metabolic Activation: RAT, LIVER, S-9, AROCLOR 1254, Method: DIRECT PLATE) was “inactive; negative” and the mutagenic call (Test System: E. COLI, Strain/Indicator: WP2UVRA, Metabolic Activation: RAT, LIVER, S-9, AROCLOR 1254, Method: PREINCUBATION) was “inactive; negative”. The mutagenic call (Test System: E.COLI, Strain/Indicator: WP2UVRA, Metabolic Activation: NONE, Method: DIRECT PLATE) was “inactive; negative”, the mutagenic call (Test System: MOUSE LYMPHOMA, Strain/Indicator: L5178Y (TK+/TK-), Metabolic Activation: RAT, LIVER, S-9, AROCLOR 1254, Method: SUSPENSION/PLATE) was “active; positive” and the mutagenic call (Test System: MOUSE LYMPHOMA, Strain/Indicator: L5178Y(TK+/-), Metabolic Activation: NONE, Method: SUSPENSION/PLATE (4 H EXPOSURE)) was “active; positive”. The mutagenic call (Test System: MOUSE LYMPHOMA, Strain/Indicator: L5178Y(TK+/-), Metabolic Activation: NONE, Method: SUSPENSION/PLATE (24 H EXPOSURE)) was “inactive; negative” and the mutagenic call (Test System: MOUSE LYMPHOMA, Strain/Indicator: L5178Y(TK+/-), Metabolic Activation: RAT LIVER S-9, AROCLOR 1254, Method: SUSPENSION/PLATE) was “active; positive”.

From PubChem BioAssay AID1259407 (Chemical Carcinogenesis Research Information System (CCRIS), 2018)
